Data on one molecule can be found in patent publication US20230286919A1, “ISOQUINOLINE DERIVATIVES FOR USE IN THERAPY” (Vestlandets Innovasjonsselskap AS, priority 2020, published 2023).

Test [1] has as its system phosphorylated STAT3 (Tyr705). The experiment in a line: Western blot, IL-6-induced phosphorylation of STAT3 (Tyr705) in LNCaP cells. The note with it: 20 μM, 24 hrs, 10 ng/ml IL-6 last 15 min. In kind it is cell-based, human. On the procedure: To obtain the results shown in FIG. 9, LNCaP cells were treated with DMSO, 20 μM of compound 323-1 or 323-2 or 5 μM cryptotanshinone for 24 hrs before treatment with or without 10 ng/ml IL-6 for the last 15 min.
(In general: A western blot detects proteins with antibodies after separation by electrophoresis.)

The subject of test [2] is phosphorylated STAT3 (Tyr705) over pSTAT1 (S727). Kind of test: Western blot, pSTAT3 (Tyr705) and pSTAT1 (S727) in DU145 cells. Particulars: 24 hrs. In kind it is cell-based, human.
Test [3] has as its system STAT3 target genes (Cyclin D1, BCL-XL, MCL1, Survivin, PARP). Kind of test: Western blot of STAT3 target gene proteins. In kind it is cell-based, human. On the procedure: As reported, aberrant STAT3 regulates the expression of downstream target genes involved in anti-apoptosis (Bcl-2, Mcl-1, survivin, and Bcl-xL), cell cycle (cyclin D1 and c-Myc), angiogenesis (VEGF and HIF1α), invasion and metastasis (MMP-1, MMP-2, MMP-9) and the inhibition of host immune surveillance. To further identify the characterization of the properties of 323-1 and 323-2, DU145, EPT3-M1-STAT3 and LNCaP cells were treated with 323-1 and 323-2 followed by western blotting.
To obtain the results shown in FIG. 13, EPT3M1-STAT3 or LNCaP cells were treated with DMSO, 20 μM of compound 323-1, or 20 μM of compound 323-2 for 48 hrs, respectively. Lysates were analysed and loaded to western blotting.

The subject of a further test is STAT3. Kind of test: DARTS (drug affinity responsive target stability) assay in EPT3M1-STAT3 cell lysates. In kind it is binding, human. The note with it: 200 μM. The procedure:
EPT3M1-STAT3 cells were lysed with cold M-PER buffer (Thermo Fisher Scientific, Pierce cat.78501) containing protease (Roche, Basel, Switzerland, cat. no. 11836153001) and phosphatase inhibitors (Pierce cat. no. 78420) and centrifugated (18,000×g for 10 min at 4° C.). Lysates were diluted to the same final volume and proteolysed in TNC buffer [50 mM Tris-HCl (pH 8.0), 50 mM NaCl, 10 mM CaCl2]. 200 μM 323-1 or 200 μM 323-2 or the same volume of DMSO were added and incubated for 1 hour at RT. Pronase solution (1.25 mg/ml, 1:100 stock solution) was diluted serially by mixing with 1×TNC buffer to create 1:300, 1:1000, 1:3000 and 1:10000 Pronase stock aliquots. Pronase was added into both DMSO and drug groups and incubated for 30 min at RT. Digestion was stopped by adding 4× loading buffer and heating to 90° C. for 10 min immediately prior to the Western blot assay according to Lomenick, et al. (Proc Natl Acad Sci USA, 2009; 106: 21984-9) and Lomenick wt al. (ACS Chem Biol. 2011; 6: 34-46). […]

Test [4] deals with DU145, PC3, EPT3M1-STAT3, and 22Rv1 cells. Kind of test: In vitro clonogenic assay. It counts as cell-based, human. Particulars: DU145, PC3, EPT3M1-STAT3, 22Rv1; 2 weeks. The procedure:
On the second day after seeding single cells, 323-1 and 323-2 were added at various concentrations, and cells were allowed to grow for 2 weeks to form colonies, then stained with 0.4% crystal violet (w/v).

The subject of another test is DU145 cells. Kind of test: Flow cytometric analysis of cell apoptosis. In kind it is cell-based, human. The note with it: 72 hrs. The procedure: The […] effect of compounds 323-1 and 323-2 was evaluated in DU145 cells.
Data are shown as representative results of three experiments.
(In general: In flow cytometry, cells or beads pass a laser one at a time.)

Test [5] relates to LPS-induced IL-10 and IL-12p70 secretion in dendritic cells. The experiment in a line: ELISA of secreted IL-10 and IL-12p70 in LPS-stimulated dendritic cells. Particulars: 24 hrs. It counts as cell-based, human. On the procedure:
Low platelet peripheral blood mononuclear cells (PBMCs) were isolated from peripheral blood of healthy donors by Ficoll-Paque density centrifugation. Monocytes were derived from the above PBMCs by immunomagnetic selection with CD14+ microbeads (Pan Monocyte Isolation Kit from Miltenyi Biotec) and seeded at s 0.5×10^6 monocytes/ml in CellGro medium supplemented with GM-CSF (100 ng/ml) and IL-4 (20 ng/ml) to obtain immature dendritic cells (iDCs). Cytokines were replenished after 72 hrs and 24 hrs after incubation, iDCs were stimulated with 30 ng/ml LPS to obtain mature dendritic cells (moDCs). Test compounds were added into the wells 1 hr prior to the LPS treatment and co-incubated with LPS for another 23 hrs. Supernatant was collected for the detection of secreted IL-10 and IL-12p70 using a standard ELISA kit and cells were collected and markers identified by flow cytometry.
The effects of compounds 323-1 and 323-2 and various controls on the LPS-induced expression of cytokines IL-10, IL-12p70, co-stimulatory molecules and maturation markers (CD80, CD83, CD86, HLA-DR, CCR7) and programmed death-ligand 1 (PD-L1) and programmed death-ligand 2 (PD-L2) were determined.
A general note: In an ELISA, binding on a coated surface is turned into a signal by an enzyme label.

[6] abbreviates: EPT3-M1-STAT3 and LNCaP cells, 20 μM, 48 hrs.

Turning to `C[C@@H]1CCC(c2cc3c4c(cncc4c2)[C@@H](C)C3)=C1C=O` [323-2, (15S,2R)-Delavatine A], in test [1], the “IL-6-induced phosphorylation of STAT3 on Tyr705” value is listed as “inhibited”. Also, in test [2], the “Expression of phosphorylated STAT3 at Tyr705 compared with S3I-201” value is “better effect than S3I-201” and the “Selectivity, phosphorylated STAT3 (Tyr705) over pSTAT1 (S727)” value is on record as “selective inhibitory effect”. Besides, in test [3] (setting [6]), the “Protein level of STAT3 target gene MCL1” value was “repressed” and the “Protein level of Survivin or PARP” value was “but not Survivin or PARP”. Moreover, in test [3] (LNCaP cells), the “Expression of Cyclin D1” value was “down-regulated dose-dependently”. Further, in the test with STAT3, the “Digestion of non-target proteins STAT1, JAK2, Src, β-actin” value was “unchanged” and the “Protection of STAT3 against pronase digestion” value is “protection of the target protein STAT3”. Moreover, the Colony formation entry in test [4] is “Concentration-dependent inhibition of colony formation”. For the same molecule, in the test on DU145 cells, the Induction of apoptosis result is “appeared to induce apoptosis” and the “Induction of apoptosis compared with cryptotanshinone” value is recorded as “much weaker than by cryptotanshinone”. Also, in test [5], the “Secretion of IL-10 and IL-12p70” value is given as “significantly reduced”.
